Data published in US20110206739A1, “COMPOSITIONS AND METHODS FOR THE PREPARATION OF NANOEMULSIONS” (UNIVERSITY OF MASSACHUSETTS, priority 2008, published 2011).

What was measured:
[1] = Stability of Coumarin preparations over several days stored at room temperature (size, PDI); assay type: physicochemical; settings: for Size: in nm (unit assumed)
From the text: The fluorescence intensity of a Coumarin 6 nanoemulsion can be increased by adding a polysaccharide polymer such as dextran to the SANE formulation. As described in Example 2, the fluorescent dye Coumarin 6 SANE composition can optionally comprise dextran to increase fluorescence intensity of the SANE dye composition. Example 2 describes preparation of Coumarin 6 SANE dye formulations with and without the addition of the polymer dextran. Example 2 also describes measured particle size, stability and fluorescence intensity determined in samples of (a) DMSO coumarin 6 preparation, (b) nanoemulsion of coumarin 6 preparation without dextran, and (c) nanoemulsion of coumarin 6 with dextran.
As shown by the data in Table 2 is that over a 3 day period, these SANE preparations of Coumarin 6 were stable (determined by particle size changes) at room temperature for at least 3 days compared to the DMSO coumarin 6 preparation.
(§1) Particle sizes of all the formulations indicated in the Examples below were measured by dynamic laser light scattering, also called Photon correlation spectroscopy, using the Malvern Zetasizer-S instrument (Malvern Instruments Inc., Southborough Mass.). Each sample was diluted immediately before measurement with distilled water to avoid multiple light scattering effects. […] The particle diffusion (translational diffusion) due to Brownian motion was measured in the instrument and related to the size of the parameter. The mean hydrodynamic diameter (DH) was calculated from the Strokes-Einstein equation. The range of particle sizes which can be measured by the Zetasizer is from 0.6 to 6000 nm.

[2] = system: melanoma cancer cells (Malme-3M); assay: 5-FU Cell Proliferation Assay (MTS Assay); assay type: cell-based, human; settings: 24 μM, compared with 5-FU nanoemulsion
Description: The in vitro activity of the 5-FU nanoemulsion was measured against three cancer cell lines (CCL-221, Malme-3M, and CCL-2) using a Cell Proliferation Assay (MTS Assay). The MTS Assay uses a tetrazolium compound (MTS) and an electron coupling reagent (PES) was purchased from Fisher Scientific (Pittsburgh, Pa.). The tetrazolium compound (MTS) can be bioreduced into a colored formazan product by dehydrogenase enzymes in metabolic cells. Formazan is a water-soluble compound and can be dissolved in the culture medium, the quantity of formazan product as measured by the absorbance at 490 nm was directly proportional to the number of living cells in culture.
After incubation for 5 hours, the cells were attached to the bottom of the well and the diluted nanoemulsions were then added and incubated for 48 hours. Subsequently, the media were removed by aspiration and 100 microliter of fresh phenol free cell culture media was pipetted followed by adding 20 microliter of MTS reagent into each well. The plate was incubated for 2 hours at 37 degrees C. in a humidified, 5% CO2 atmosphere and the 96-well plate reader was used to measure the absorbance at 490 nm. The 5-FU nanoemulsions prepared in this study had 20 nm average particle size.

PL-45 cells = assay: Paclitaxel growth inhibition, 48 hours; assay type: cell-based, human; settings: PL-45, after 48 hours of treatment
Description: FIG. 16C is a graph showing dose-dependant anti cancer activity of paclitaxel in DMSO and paclitaxel in a nanoemulsion made up of rice bran oil and Solutol® HS15 against PL-45 cells after 48 hours of treatment. The graphs indicate a 44% and 40% growth inhibition when treated with paclitaxel in DMSO and paclitaxel in nanoemulsion respectively. […] The error bars represent the standard error of mean for experiments done in duplicates.

[3] = Particle size by dynamic laser light scattering (Malvern Zetasizer-S); assay type: physicochemical
Description: Unless otherwise indicated, “average particle size” refers to the z-average particle or droplet diameter measured by dynamic laser light scattering, also called Photon correlation spectroscopy (e.g., using the Malvern Zetasizer-S instrument, Malvern Instruments Inc., Southborough Mass.). Unless otherwise indicated, the z-average particle sizes were determined using the Malvern Zetasizer-S instrument with a 4 mW He—Ne laser operating at a wavelength of 633 nm and an avalanche photodiode detector (APD). The z-average diameter is the mean hydrodynamic diameter and the polydispersity index is an estimate of the width of the distribution. Both z-average diameter and polydispersity index (“PDI”) are calculated according to the International Standard on dynamic light scattering, ISO13321.
as §1, with “Mass.).” for “Mass.). Each sample was diluted immediately before measurement with distilled water to avoid multiple light scattering effects.”

P10.05 cells = assay: Paclitaxel growth inhibition, 48 hours; assay type: cell-based, human; settings: P10.05, after 48 hours of treatment
From the text: (§2) The graphs indicate a 60% and 52% growth inhibition when treated with paclitaxel in DMSO and paclitaxel in nanoemulsion respectively. […] The error bars represent the standard error of mean for experiments done in duplicates.

CCL-221 cells = assay: Paclitaxel growth inhibition, 48 hours; assay type: cell-based, human; settings: CCl-221, after 48 hours of treatment
From the text: as §2

[4] = Electrokinetic potential (zeta potential); assay type: physicochemical; settings: at 10 mv
Description: The electrokinetic potential (“Zeta-potential”) of the curcumin nanoemulsion was measured (FIG. 10A) and compared to the corresponding electrokinetic potential for curcumin in water (FIG. 10B). The zeta potential of a colloidal system corresponds to the electric potential in the interfacial double layer (DL) at the location of the slipping plane versus a point in the bulk fluid away from the interface (i.e., the potential difference between the dispersion medium and the stationary layer of fluid attached to the dispersed particle). For small particles (e.g., nanoemulsions) a higher zeta potential corresponds to greater stability of a colloidal dispersion, representing a greater degree of repulsion between adjacent particles in the dispersion to resist particle/droplet aggregation. A zeta potential of −23.5 (wall zeta potential of −50.3) was measured for the curcumin nanoemulsion (FIG. 10A), compared to a zeta wall potential at 10 mv of −2.53 for curcumin in water (FIG. 10B).

[5] = system: Malme-3M melanoma cancer cells; assay: Curcumin cell inhibition, MTS assay after 72 hrs; assay type: cell-based, human
Description: The curcumin nanoemulsion was prepared by combining gelatin and EMG-20 or gelatin and Solutol® HS15 in a 1:1 weight ratio. The cell inhibition activity of the blank nanoemulsion, a 30 micromolar DMSO-curcumin mixture, a 0.030 micromolar DMSO-curcumin mixture, and a 0.03 micromolar curcumin nanoemulsion were contacted with melanoma cancer cell lines.

Molecule: Coumarin 6 [DMSO COUMARIN]
- PDI ([1]; 0 hrs): 0.457
- Size ([1]; 0 hrs): 1373
- PDI ([1]; 72 hrs): 0.857
- Size ([1]; 72 hrs): 1373
- PDI ([1]; 96 hrs): 0.857
- Size ([1]; 96 hrs): 2142
- PDI ([1]; 120 hrs): 0.857
- Size ([1]; 120 hrs): 6000
- PDI ([1]; 144 hrs): 0.857
- Size ([1]; 144 hrs): 6000
- PDI ([1]; 240 hrs): 0.857
- Size ([1]; 240 hrs): 6000

Molecule: O=c1[nH]cc(F)c(=O)[nH]1 [non-encapsulation 5-FU, 5-fluorouracil]
- inhibition of cell proliferation [2]: not as effective

Molecule: CC(=O)O[C@H]1C(=O)[C@@]2(C)[C@H]([C@H](OC(=O)c3ccccc3)[C@]3(O)C[C@H](OC(=O)[C@H](O)[C@@H](NC(=O)c4ccccc4)c4ccccc4)C(C)=C1C3(C)C)[C@]1(OC(C)=O)CO[C@@H]1C[C@@H]2O [paclitaxel in DMSO, paclitaxel]
- growth inhibition (PL-45 cells): 44%
- average particle (droplet) size, Z-average [3]: ≥ 1,000 nm
- growth inhibition (P10.05 cells): 60%
- growth inhibition (CCL-221 cells): 60%

Molecule: COc1cc(/C=C/C(=O)CC(=O)/C=C/c2ccc(O)c(OC)c2)ccc1O [curcumin in water, (1E,6E)-1,7-bis(4-hydroxy-3-methoxyphenyl)-1,6-heptadiene-3,5-dione]
- zeta wall potential [4]: −2.53

Molecule: COc1cc(/C=C/C(=O)CC(=O)/C=C/c2ccc(O)c(OC)c2)ccc1O [curcumin in DMSO, (1E,6E)-1,7-bis(4-hydroxy-3-methoxyphenyl)-1,6-heptadiene-3,5-dione]
- inhibition of melanoma cancer cell proliferation ([5]; 0.03 micromolar): efficacy against the melanoma cancer cells is lost
- inhibition of melanoma cancer cell proliferation ([5]; 30 micromolar): inhibited melanoma cancer cell proliferation
